Results: US10196671B2, “Assay method for the detection of viable microbial cells in a sample” (3M INNOVATIVE PROPERTIES COMPANY, priority 2006, dated 2019)

Assays:
[1] = target: T1, apyrase (Solanum tuberosum, UniProt P80595)
Procedure: (§1) 1. Leuconostoc sp MD 110 was grown by streaking a bead onto de Man Rogosa Sharpe agar to revive bead for stock (place in 30° C. incubator overnight).
a. A loop was taken from this plate and transferred to 10 ml Tryptone Soya Broth and grown at 30° C. for exactly 40 hours.
b. […] Cells were washed twice in ice-cold Reverse Osmosis water in centrifuge (4500 rpm for 10 mins), resuspended in 10 ml cold Reverse Osmosis water and stored in the fridge. c. Cells for the experiment were prepared using a 100× dilution of this stock with a sterile solution of glucose (10 g/l) and MgCl2 (5 mM) at room temperature. Cells were diluted into this solution at least 20 minutes prior to starting each experiment to allow adaptation to the new conditions.
d. A luciferase/luciferin reagent formulated with a detergent-resistant luciferase (Promega, Ultraglo) (Liquid Lysate) enzyme was reconstituted in 17.5 ml phosphate buffer pH 7.75.
(§2) 2. 1 ml of the above cell suspension was added to a cuvette.
3. The suspension was then treated with 1 ml of reconstituted apyrase 0.96 units per ml, and […] of ATP (10^−7M) was added and left for 15 minutes at room temperature.
(§3) 4. Two 100 μl aliquots of the treated suspension was transferred to clean cuvettes.
5. 100 μl of the luciferase/luciferin reagent formulated with a detergent-resistant luciferase (Promega, Ultraglo)/phosphate luciferase was added to each of the cuvettes.
6. To the remaining 2 cuvettes 100 μl of a solution of long chain fatty acid ethoxylates (the extractant) was added and a timer started.
7. Cuvette 1 was read in a luminometer after 5 minutes extraction time.
8. Cuvette 1 was removed from the luminometer and 10 μl of 10^−7M ATP was added to standardise.
9. The sample was returned to the luminometer and read again, then read 5 consecutive times in a row in order to determine the final kinetics of the reaction.
10. After a further five minutes steps 9-11 were repeated for cuvette 2.
11. For the control steps 4 to 13 were repeated but using a luciferase/luciferin reagent formulated with a detergent-resistant luciferase (Promega, Ultraglo) reconstituted in 25 mM HEPES buffer pH 7.75.

[2] = target: T1, apyrase; remark: listed apart in the source
Procedure: A loop was taken from this plate and transferred to 10 ml Tryptone Soya Broth and grown at 30° C. for exactly 40 hours.
1.3. […] Cells were washed twice in ice-cold Reverse Osmosis water in centrifuge (4500 rpm for 10 mins), resuspended in 10 ml cold Reverse Osmosis water and stored in the fridge.
Cells for the experiment were prepared using a 100× dilution of this stock with a sterile solution of glucose (10 g/l) and MgCl2 (5 mM) at room temperature. Cells were diluted into this solution at least 20 minutes prior to starting each experiment to allow adaptation to the new conditions.
as §2

[3] = target: T1, apyrase; remark: listed apart in the source
Procedure: as §1
1.1 A loop was taken from this plate and transferred to 10 ml Tryptone Soya Broth and grown at 30° C. for exactly 40 hours.
Cells were washed twice in ice-cold RO water in centrifuge (4500 rpm for 10 mins), resuspended in 10 ml cold Reverse Osmosis water and stored in the fridge.
(§4) 1.3. Cells for the experiment were prepared using a 100× dilution of this stock with a sterile solution of glucose (10 g/l) and MgCl2 (5 mM) at room temperature. Cells were diluted into this solution at least 20 minutes prior to starting each experiment to allow adaptation to the new conditions.
1 ml of the above cell suspension was added to a cuvette.
2. The suspension was then treated with 1 ml of reconstituted apyrase 0.96 units per ml, and 10 μl of ATP (10^−7M) was added and left for 15 minutes at room temperature.
3. 2×100 μl aliquots of the treated suspension were added to clean cuvettes.
4. To these 2 cuvettes 20 μl of 100 μM pH 7.75 phosphate solution was added.
5. 100 μl of the extractant (a solution of long chain fatty acid ethoxylates) was added and a timer started.
(§5) 6. After 5 minutes extraction time Cuvette 1 was read in a luminometer.
(§6) 7. Cuvette 1 was removed from the luminometer and 10 μl of 10^−7M ATP was added to standardise.
(§7) 8. The sample was returned to the luminometer and read again, then read 5 consecutive times in a row in order to determine the final kinetics of the reaction.
(§8) 9. After a further five minutes the second water cuvette was read in a luminometer.
(§9) 10. Steps 7-11 were repeated for cuvette 2.
11. For the control, steps 4 to 13 were repeated but using 20 μl of Reverse Osmosis water in place of 20 μl phosphate.

[4] = target: T1, apyrase; remark: listed apart in the source
Procedure: as §1
1.1. A loop was taken from this plate and transferred to 10 ml Tryptone Soya Broth and grown at 30° C. for exactly 40 hours.
Cells were washed twice in ice-cold Reverse Osmosis water in centrifuge (4500 rpm for 10 mins), resuspended in 10 ml cold Reverse Osmosis water and stored in the fridge.
as §4
A special luciferase/luciferin reagent formulated with a detergent-resistant luciferase (Promega, Ultraglo) enzyme was prepared. This was reconstituted in 17.5 ml of 30 mM phosphate /10 g/l a solution of long chain fatty acid ethoxylates.
as §2
3. The suspension was then treated with 1 ml of reconstituted apyrase 0.96 units per ml, and 10 μl of ATP (10^−7M) was added and left for 15 minutes at room temperature.
as §3
5. To these two cuvettes 100 μl of the luciferase/luciferin reagent formulated with a detergent-resistant luciferase (Promega, Ultraglo) Ultraglo/phosphate/solution of long chain fatty acid ethoxylates was added.
as §5, §6, §7, §8, §9
11. For the control, steps 4 to 13 were repeated but using a luciferase/luciferin reagent formulated with a detergent-resistant luciferase (Promega, Ultraglo) made by reconstituting in 25 mM HEPES buffer pH 7.75 with a solution of long chain fatty acid ethoxylates (10 g/l).

T1 sequence (P80595 whole entry, species assumed): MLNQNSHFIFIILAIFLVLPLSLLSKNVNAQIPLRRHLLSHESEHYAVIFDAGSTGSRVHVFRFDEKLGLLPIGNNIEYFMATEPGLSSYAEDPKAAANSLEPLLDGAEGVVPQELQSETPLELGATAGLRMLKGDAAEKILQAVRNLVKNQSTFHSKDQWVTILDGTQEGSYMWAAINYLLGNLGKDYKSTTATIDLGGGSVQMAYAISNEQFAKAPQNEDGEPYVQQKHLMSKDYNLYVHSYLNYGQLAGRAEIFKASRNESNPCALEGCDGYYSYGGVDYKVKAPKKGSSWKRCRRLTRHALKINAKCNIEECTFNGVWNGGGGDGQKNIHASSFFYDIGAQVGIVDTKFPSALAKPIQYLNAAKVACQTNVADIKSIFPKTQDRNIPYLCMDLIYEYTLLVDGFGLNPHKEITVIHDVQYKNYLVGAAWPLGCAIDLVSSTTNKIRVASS

Substance: phosphate
- drop of assay signal (kinetics, FIG. 2.3) ([1]; in 50 seconds after ATP standard, phosphate buffer pH 7.75): 10%
- RLU produced after 5 minutes extraction still remaining at T=10 minutes ([1]; luciferase reagent reconstituted in phosphate buffer pH 7.75): 73.7%
- amount of ATP at T=10 as percentage of that present at T=5 ([1]; phosphate buffer pH 7.75): 81.3%
- amount of ATP at T=5 ([1]; phosphate buffer pH 7.75, T=5 minutes): 0.035 picomoles
- amount of ATP remaining at T=10 ([1]; phosphate buffer pH 7.75, T=10 minutes): 0.029 picomoles
- rise in RLU from T-5 to T-10 ([2]; 30 mM phosphate mixed with the extractant, after 15 min apyrase 0.96 units per ml, Leuconostoc sp MD 110 suspension): 38%
- inhibition of apyrase (kinetics, FIG. 1.3) ([2]; 30 mM phosphate, ATP standard added, consecutive luminometer reads): inhibits the action of apyrase
- inhibition of apyrase, ATP broken down in 5 minutes (FIG. 4.2) ([3]; 20 μl of 100 μM pH 7.75 phosphate solution): does inhibit apyrase
- RLU produced after 5 minutes extraction remaining 5 minutes later ([3]; 20 μl of 100 μM pH 7.75 phosphate solution added before extractant): 100%
- level of ATP present in the assay, T-5 to T-10 ([3]; 20 μl of 100 μM pH 7.75 phosphate solution, patent believes it an artifact of the calculation): increased
- drop of RLU values (kinetics) ([3]; in 46 seconds, 20 μl of 100 μM pH 7.75 phosphate solution): around 1,400 RLU
- amount of ATP per assay higher at T=10 than at T=5 ([4]; 30 mM phosphate in luciferase/extractant reagent): 42%
- amount of ATP per assay at T=5 ([4]; 30 mM phosphate in luciferase/extractant reagent, T=5): 0.0052 picomoles
- amount of ATP per assay at T=10 ([4]; 30 mM phosphate in luciferase/extractant reagent, T=10): 0.0074 picomoles
- increase of RLU values (kinetics) ([4]; in 75 seconds, 30 mM phosphate in luciferase/extractant reagent): 13%
- RLU signal higher at T=10 than at T=5 ([4]; luciferase reagent in 30 mM phosphate / 10 g/l long chain fatty acid ethoxylates): 57%
